Reference: US12077503B2, “Substituted cyclic amides and their use as herbicides” (FMC CORPORATION, priority 2015, dated 2024)
Like-named read-outs stand apart in the source and are kept apart here.

Experiments:
Assay type in all cases: in vivo
[1] = tested on: pigweed (Amaranthus retroflexus); assay: Test A preemergence; conditions: Amaranthus retroflexus, pre-emergence, 240 h; for pest or weed control at 125 g/ha: 125 g ai/ha, preemergence, 0 to 100 scale where 0 is no effect and 100 is complete control, read-out: Pigweed plant response rating; for pest or weed control at 500 g/ha: 500 g ai/ha, Preemergence, visual injury vs untreated controls after approximately 10 d, read-out: Pigweed plant response rating (0 to 100 scale where 0 is no effect and 100 is complete control)
[2] = tested on: ryegrass, Italian (Italian ryegrass, Lolium multiflorum); assay: Test A postemergence; conditions: Lolium multiflorum, post-emergence, 240 h, 125 g ai/ha
In short: (§1)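 Visual injury, scored on a 0–100 scale relative to untreated controls, was recorded about 10 d after application. Treatments were a preemergence soil spray over planted seeds or a postemergence spray on plants at the one- to two-leaf stage, 2 to 10 cm tall, all in loam soil–sand blend in the greenhouse.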

[3] = tested on: barnyardgrass (Echinochloa crus-galli); assay: Test A postemergence; conditions: Echinochloa crus-galli, post-emergence, 240 h, 125 g ai/ha
In short: as §1

[4] = tested on: Galium (catchweed bedstraw, Galium aparine); assay: Test A postemergence; conditions: Galium, post-emergence, 240 h, 125 g ai/ha
In short: as §1

[5] = tested on: pigweed (Amaranthus retroflexus); assay: Test A postemergence; conditions: Amaranthus retroflexus, post-emergence, 240 h, 125 g ai/ha
In short: as §1

[6] = tested on: giant foxtail (Setaria faberii); assay: Test A postemergence; conditions: Setaria faberi, post-emergence, 240 h, 125 g ai/ha
In short: as §1

Kochia (Kochia scoparia) = assay: Test A postemergence; conditions: Bassia scoparia, post-emergence, 240 h, 125 g ai/ha
In short: as §1

corn (Zea mays) = assay: Test A postemergence; conditions: Zea mays, post-emergence, 240 h, 125 g ai/ha; for plant injury at 125 g/ha: postemergence, visual injury rating after approximately 10 d, read-out: Corn plant response rating (0 to 100 scale, 0 no effect, 100 complete control)
In short: as §1

[7] = tested on: wheat (Triticum aestivum); assay: Test A postemergence; conditions: Triticum aestivum, post-emergence, 240 h, 125 g ai/ha
In short: as §1

[8] = tested on: ragweed (common ragweed, Ambrosia elatior); assay: Test A postemergence; conditions: Ambrosia artemisiifolia, post-emergence, 240 h, 125 g ai/ha
In short: as §1

[9] = tested on: blackgrass (Alopecurus myosuroides); assay: Test A postemergence; conditions: Alopecurus myosuroides, post-emergence, 240 h, 125 g ai/ha
In short: as §1

[10] = tested on: barnyardgrass (Echinochloa crus-galli); assay: Test B flooded paddy test; conditions: Echinochloa crus-galli, Flood, 250 g ai/ha; scale of 0 to 100 where 0 is no effect and 100 is complete control; read-out: Barnyardgrass plant response rating
In short: (§2)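 Compound goes directly into floodwater once pots are flooded 3 cm above soil, targeting plants at two leaves; the water depth is then held for the test duration. Plants sit 13–15 d in a greenhouse and are rated visually, 100 denoting complete control.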

[11] = tested on: ducksalad (Heteranthera limosa); assay: Test B flooded paddy test; conditions: Heteranthera limosa, Flood, 250 g ai/ha; scale of 0 to 100 where 0 is no effect and 100 is complete control; read-out: Ducksalad plant response rating
In short: as §2

[12] = tested on: sedge, umbrella (small-flower umbrella sedge, Cyperus difformis); assay: Test B flooded paddy test; conditions: Cyperus difformis, Flood, 250 g ai/ha; scale of 0 to 100 where 0 is no effect and 100 is complete control; read-out: Sedge, Umbrella plant response rating
In short: as §2

rice (Oryra sativa) = assay: Test B flooded paddy test; conditions: Oryza sativa, Flood, 250 g ai/ha; scale of 0 to 100 where 0 is no effect and 100 is complete control; read-out: Rice plant response rating
In short: as §2

[13] = postemergence, visual injury rating after approximately 10 d, read-out: Ryegrass, Italian plant response rating (0 to 100 scale, 0 no effect, 100 complete control)
[14] = postemergence, visual injury rating after approximately 10 d, read-out: Barnyardgrass plant response rating (0 to 100 scale, 0 no effect, 100 complete control)
[15] = postemergence, visual injury rating after approximately 10 d, read-out: Galium plant response rating (0 to 100 scale, 0 no effect, 100 complete control)
[16] = postemergence, visual injury rating after approximately 10 d, read-out: Pigweed plant response rating (0 to 100 scale, 0 no effect, 100 complete control)
[17] = postemergence, visual injury rating after approximately 10 d, read-out: Foxtail, Giant plant response rating (0 to 100 scale, 0 no effect, 100 complete control)
[18] = postemergence, visual injury rating after approximately 10 d, read-out: Kochia plant response rating (0 to 100 scale, 0 no effect, 100 complete control)
[19] = postemergence, visual injury rating after approximately 10 d, read-out: Wheat plant response rating (0 to 100 scale, 0 no effect, 100 complete control)
[20] = postemergence, visual injury rating after approximately 10 d, read-out: Ragweed plant response rating (0 to 100 scale, 0 no effect, 100 complete control)
[21] = postemergence, visual injury rating after approximately 10 d, read-out: Blackgrass plant response rating (0 to 100 scale, 0 no effect, 100 complete control)

CN1C[C@H](c2cc(F)cc(F)c2)[C@@H](C(=O)Nc2ccccc2[S@@+](C)[O-])C1=O [Compound 872]
30%: pest or weed control at 125 g/ha [5, 16] | plant injury at 125 g/ha (corn (Zea mays))
85%: pest or weed control at 250 g/ha [11]
90%: pest or weed control at 125 g/ha [3, 14]
50%: pest or weed control at 125 g/ha [4, 15] | pest or weed control at 125 g/ha (Kochia (Kochia scoparia); [18])
80%: pest or weed control at 125 g/ha [6, 17]
0%: pest or weed control at 125 g/ha [1] | pest or weed control at 125 g/ha [2, 13] | pest or weed control at 125 g/ha [8, 20] | pest or weed control at 250 g/ha [10] | pest or weed control at 250 g/ha (rice (Oryra sativa))
40%: pest or weed control at 250 g/ha [12]
60%: pest or weed control at 500 g/ha [1]
20%: plant injury at 125 g/ha [7, 19] | pest or weed control at 125 g/ha [9, 21]

COc1ccc(CN2CC[C@H](c3ccc(F)cc3)[C@@H](C(=O)Nc3cccc(F)c3F)C2=O)cc1 [Compound 919]
0%: pest or weed control at 125 g/ha [1] | pest or weed control at 500 g/ha [1] | pest or weed control at 125 g/ha ([2]; Postemergence, visual injury after approximately 10 d, 0 to 100 scale where 0 is no effect and 100 is complete control, read-out: Plant response rating, Ryegrass, Italian) | pest or weed control at 125 g/ha ([3]; Postemergence, visual injury after approximately 10 d, 0 to 100 scale where 0 is no effect and 100 is complete control, read-out: Plant response rating, Barnyardgrass) | pest or weed control at 125 g/ha ([4]; Postemergence, visual injury after approximately 10 d, 0 to 100 scale where 0 is no effect and 100 is complete control, read-out: Plant response rating, Galium) | pest or weed control at 125 g/ha ([5]; Postemergence, visual injury after approximately 10 d, 0 to 100 scale where 0 is no effect and 100 is complete control, read-out: Plant response rating, Pigweed) | pest or weed control at 125 g/ha ([6]; Postemergence, visual injury after approximately 10 d, 0 to 100 scale where 0 is no effect and 100 is complete control, read-out: Plant response rating, Foxtail, Giant) | pest or weed control at 125 g/ha (Kochia (Kochia scoparia); Postemergence, visual injury after approximately 10 d, 0 to 100 scale where 0 is no effect and 100 is complete control, read-out: Plant response rating, Kochia) | Corn plant response rating (crop injury, 0 = no effect, 100 = complete kill) at 125 g/ha (corn (Zea mays); Postemergence, visual injury after approximately 10 d, 0 to 100 scale where 0 is no effect and 100 is complete control) | plant injury at 125 g/ha ([7]; Postemergence, visual injury after approximately 10 d, 0 to 100 scale where 0 is no effect and 100 is complete control, read-out: Plant response rating, Wheat) | pest or weed control at 125 g/ha ([8]; Postemergence, visual injury after approximately 10 d, 0 to 100 scale where 0 is no effect and 100 is complete control, read-out: Plant response rating, Ragweed) | pest or weed control at 125 g/ha ([9]; Postemergence, visual injury after approximately 10 d, 0 to 100 scale where 0 is no effect and 100 is complete control, read-out: Plant response rating, Blackgrass) | pest or weed control at 250 g/ha [10] | pest or weed control at 250 g/ha [11] | pest or weed control at 250 g/ha [12] | pest or weed control at 250 g/ha (rice (Oryra sativa))

Cc1c(F)ccc([C@H]2CN(C)C(=O)[C@@H]2C(=O)Nc2ccccc2F)c1F [Compound 833]
90%: pest or weed control at 125 g/ha [3, 14] | pest or weed control at 125 g/ha [6, 17]
20%: plant injury at 125 g/ha (corn (Zea mays))
40%: pest or weed control at 125 g/ha [4, 15] | pest or weed control at 125 g/ha [9, 21]
45%: pest or weed control at 250 g/ha [10]
85%: pest or weed control at 250 g/ha [11]
60%: pest or weed control at 125 g/ha [2, 13]
0%: pest or weed control at 125 g/ha [1] | pest or weed control at 500 g/ha [1] | pest or weed control at 125 g/ha [5, 16] | plant injury at 125 g/ha [7, 19] | pest or weed control at 125 g/ha [8, 20] | pest or weed control at 250 g/ha [12] | pest or weed control at 250 g/ha (rice (Oryra sativa))
30%: pest or weed control at 125 g/ha (Kochia (Kochia scoparia); [18])

CN1C[C@H](c2cc(F)c(C(F)(F)F)c(F)c2)[C@@H](C(=O)Nc2cccc(F)c2F)C1=O [Compound 898]
70%: plant injury at 125 g/ha (corn (Zea mays)) | pest or weed control at 250 g/ha [11]
40%: pest or weed control at 125 g/ha [5, 16] | plant injury at 125 g/ha [7, 19]
60%: pest or weed control at 125 g/ha [1]
55%: pest or weed control at 250 g/ha [10]
80%: pest or weed control at 500 g/ha [1] | pest or weed control at 125 g/ha [3, 14] | pest or weed control at 125 g/ha [6, 17]
0%: pest or weed control at 125 g/ha [4, 15] | pest or weed control at 125 g/ha (Kochia (Kochia scoparia); [18]) | pest or weed control at 125 g/ha [8, 20] | pest or weed control at 250 g/ha [12] | pest or weed control at 250 g/ha (rice (Oryra sativa))
50%: pest or weed control at 125 g/ha [2, 13] | pest or weed control at 125 g/ha [9, 21]

CN1C[C@H](c2cc(F)cc(F)c2)[C@@H](C(=O)Nc2ncc(C(F)(F)F)cc2F)C1=O [Compound 868]
20%: pest or weed control at 125 g/ha [3, 14]
0%: pest or weed control at 125 g/ha [1] | pest or weed control at 500 g/ha [1] | pest or weed control at 125 g/ha [2, 13] | pest or weed control at 125 g/ha [4, 15] | pest or weed control at 125 g/ha [5, 16] | pest or weed control at 125 g/ha [6, 17] | pest or weed control at 125 g/ha (Kochia (Kochia scoparia); [18]) | plant injury at 125 g/ha (corn (Zea mays)) | plant injury at 125 g/ha [7, 19] | pest or weed control at 125 g/ha [8, 20] | pest or weed control at 125 g/ha [9, 21] | pest or weed control at 250 g/ha [10] | pest or weed control at 250 g/ha [11] | pest or weed control at 250 g/ha [12] | pest or weed control at 250 g/ha (rice (Oryra sativa))

CN1CC(c2cccc(C=O)c2)C(C(=O)Nc2ccccc2F)C1=O (stereo not shown) [Compound 844]
0%: pest or weed control at 125 g/ha [1] | pest or weed control at 500 g/ha [1] | pest or weed control at 125 g/ha [2, 13] | pest or weed control at 125 g/ha [3, 14] | pest or weed control at 125 g/ha [4, 15] | pest or weed control at 125 g/ha [5, 16] | pest or weed control at 125 g/ha [6, 17] | pest or weed control at 125 g/ha (Kochia (Kochia scoparia); [18]) | plant injury at 125 g/ha (corn (Zea mays)) | plant injury at 125 g/ha [7, 19] | pest or weed control at 125 g/ha [8, 20] | pest or weed control at 125 g/ha [9, 21] | pest or weed control at 250 g/ha [10] | pest or weed control at 250 g/ha [11] | pest or weed control at 250 g/ha [12] | pest or weed control at 250 g/ha (rice (Oryra sativa))

Cc1cc(C)cc([C@H]2CN(C)C(=O)[C@@H]2C(=O)Nc2ccccc2C(F)(F)F)c1 [Compound 912]
30%: plant injury at 125 g/ha (corn (Zea mays)) | pest or weed control at 125 g/ha [9, 21]
0%: pest or weed control at 125 g/ha [1] | pest or weed control at 500 g/ha [1] | pest or weed control at 125 g/ha [4, 15] | pest or weed control at 125 g/ha [5, 16] | pest or weed control at 125 g/ha (Kochia (Kochia scoparia); [18]) | pest or weed control at 125 g/ha [8, 20] | pest or weed control at 250 g/ha [12] | pest or weed control at 250 g/ha (rice (Oryra sativa))
20%: pest or weed control at 125 g/ha [2, 13] | plant injury at 125 g/ha [7, 19]
90%: pest or weed control at 125 g/ha [6, 17]
50%: pest or weed control at 250 g/ha [10] | pest or weed control at 250 g/ha [11]
80%: pest or weed control at 125 g/ha [3, 14]
